# Assay results reported in patent publication US20130171141A1, “COMBINATION OF HDAC INHIBITORS WITH THROMBOCYTOPENIA DRUGS” (NOVARTIS AG, priority 2010, published 2013).
# Columns and labels:
# murine platelet lifespan = experiment: Platelet clearance analysis (biotinylated platelet lifespan) in HDACi-treated mice; settings: for decrease in labelled (biotinylated) platelets in peripheral blood over time: IV NHS-biotin, seven days, 10 mg/kg panobinostat IP or 1 mg/kg romidepsin IP daily, compared to vehicle
# Method: Mice were twice injected intravenously (IV), one hour apart, with 600 μg NHS-biotin in phospho-buffered saline (PBS) and 10% dimethyl sulphoxide (DMSO). At various time points peripheral blood was isolated from the tail, and 1 μl blood was washed twice in PBS and 10 mM EDTA. Platelets were stained with phycoerythrin-conjugated rat anti-CD41 and allophycocyanin-conjugated streptavidin (APC-A) for 30 minutes on ice. Samples were washed again and incubated with 0.125 μg/ml thiazole orange, which has increased uptake in high RNA-containing platelets, staining younger, reticulated platelet fraction, for 90 minutes. Flow cytometry was then performed on an LSR flow cytometer. By plotting the number of biotinylated platelets against time, an estimate of the life span was obtained by linear extrapolation, while the number of thiazole orange-positive, non-biotinylated platelets provided an estimate of new platelet production.
# The mice were then treated for seven days with either 10 mg/kg panobinostat IP or 1 mg/kg romidepsin IP daily or vehicle, and the number of biotinylated platelets in peripheral blood was determined. […] ABT-737 is a BH3 mimetic that inhibits Bcl-xL, which causes direct platelet apoptosis. […] Megakaryocytes are the haematopoietic cells responsible for the production of platelets which reside in the bone marrow.
# reticulated platelets = experiment: Reticulated platelet staining (thiazole orange), new platelet production; assay type: in vivo, C57BL/6 mice; settings: for absolute number of reticulated (new) platelets: 6 day experiment, thiazole orange, FIG. 2
# Method: To assess platelet production, C57BL/6 mice were treated with panobinostat, carboplatin and ABT-737, and the RNA-containing platelet fraction (i.e. new platelets) was determined by staining with thiazole orange (FIG. 2). The number of new, reticulated platelets in vehicle-treated mice remained relatively constant over the 6 day time span of the experiment.
# thrombocytopenia (TCP) = experiment: HDACi-induced thrombocytopenia and co-treatment with TPO-mimetic; assay type: in vivo; settings: wild-type C57BL/6 mice, 10 mg/kg IP daily, 12-day period
# Method: To determine whether administration of a TPO-mimetic could ameliorate TCP, some of the panobinostat-treated mice were subjected to co-treatment with 20 μg/kg AMP-4 at day 0 and day 6 (FIG. 3).
# To determine whether administration of a TPO-mimetic could ameliorate TCP, some of the romidepsin-treated mice were subjected to co-treatment with 20 μg/kg AMP-4 at day 0 and day 6 (FIG. 4).
# platelet count [1] = experiment: Compound III with eltrombopag in Hodgkin's lymphoma patient; assay type: in vivo, human; settings: recommended dosage of compound III, Example 1
# Method: A patient having Hodgkin's lymphoma is given the recommend dosage of compound III. […] A patient having Hodgkin's lymphoma is tested for thrombocytopenia. Patient is found to have a low blood cell count or a biomarker for thrombocytopenia. Patient is put on a regimen of compound III together with eltrombopag.
# platelet count [2] = experiment: Compound III with eltrombopag in multiple myeloma patient; assay type: in vivo, human; settings: recommended dosage of compound III, Example 3
# Method: A patient having multiple myeloma patient is given the recommend dosage of compound III. […] A patient having Hodgkin's lymphoma is tested for thrombocytopenia. Patient is found to have a low blood cell count or a biomarker for thrombocytopenia. Patient is put on a regimen of compound III together with eltrombopag.
Compound,"reduction in platelet number (murine platelet lifespan; biotinylated platelets, two hours following administration)","decrease in labelled (biotinylated) platelets in peripheral blood over time (murine platelet lifespan; mice, FIG. 1)",absolute number of reticulated (new) platelets (reticulated platelets; C57BL/6 mice),"platelet count versus baseline (reticulated platelets; C57BL/6 mice, throughout the course of the experiment)",thrombocytopenia (TCP) (thrombocytopenia (TCP)),patient's platelet count (platelet count [1]),patient's platelet count (platelet count [2]),"platelet life span (murine platelet lifespan; mice, FIG. 1)",absolute reticulated platelet numbers (reticulated platelets; 6 days after the commencement of treatment),new platelet production (reticulated platelets; first 4 days of treatment)
CN(C)CC[C@H](CSc1ccccc1)Nc1ccc(S(=O)(=O)NC(=O)c2ccc(N3CCN(Cc4ccccc4-c4ccc(Cl)cc4)CC3)cc2)cc1[N+](=O)[O-] [ABT-737],50%,rapidly reduced,substantial increase,–,–,–,–,–,–,–
"Cc1[nH]c2ccccc2c1CCNCc1ccc(/C=C/C(=O)NO)cc1 [panobinostat, N-hydroxy-3-[4-[[[2-(2-methyl-1H-indol-3-yl)-ethyl]-amino]methyl]phenyl]-2E-2-propenamide]",–,remained similar to vehicle-treated mice,dramatic decrease,remained well below baseline levels,sustained TCP,begins to lower,begins to lower,–,–,–
N.N.O=C([O-])C1(C(=O)[O-])CCC1.[Pt+2] [carboplatin],–,–,–,–,–,–,–,did not affect,significantly reduced,did not significantly affect
C/C=C1\NC(=O)[C@H]2CSSCC/C=C/[C@H](CC(=O)N[C@H](C(C)C)C(=O)N2)OC(=O)[C@H](C(C)C)NC1=O [romidepsin],–,remained similar to vehicle-treated mice,–,–,sustained TCP,–,–,–,–,–
